Test results taken from publication PMC9658545, “From Nature to Synthetic Compounds: Novel 1(N),2,3 Trisubstituted-5-oxopyrrolidines Targeting Multiple Myeloma Cells” (International Journal of Molecular Sciences, 2022).
In brackets after ≈: the same amount, converted by molar mass. Like-named read-outs stand apart in the source and are kept apart here. Blank lines part the entries; values can stand above or below the compound they belong to.

Experiments:
[1] = tested on: RPMI 8226 cells; assay: MTT assay of cell viability in RPMI 8226 cells; type: cell-based, Human; settings: for fold more active than the reference compound Hib-ester: after 24 h of treatment; for profile in MTT and Trypan blue tests compared with racemate: enantiomers of 13, 10, 100 and 500 µM
Protocol: RPMI 8226 cells were treated with different concentrations of all compounds (10, 100 and 500 µM) at 24 h. The concentrations have been chosen based on the results previously obtained with Hib-ester. MTT assay was performed to assess cell viability and calculate the IC50 (Table 1). For compounds not showing a significant reduction of cell viability at the concentration of 500 µM, the IC50 was not calculated, and they have been considered not effective. Untreated cells were used as control (CTRL).
Human multiple myeloma RPMI 8226 cells were cultured in RPMI 1640 medium supplemented with 10% fetal bovine serum, 1% L-glutamine and 1% penicillin and streptomycin (Euroclone, Italy). Human glioblastoma U87-MG cells were cultured in DMEM low glucose supplemented with 10% fetal bovine serum, 1% L-glutamine and 1% penicillin and streptomycin (Euroclone, Italy). Cells were incubated in a humidified incubator at 37 °C and 5% CO2. A stock solution of all compounds in DMSO (50 mM) was prepared and then directly diluted in culture medium.
Cells were seeded in 96-well plates at a density of 1 × 10^4 cells/well and were treated after 24 h with RA, AM or SU molecules. After 24 h, a 3-(4,5-dimethylthiazol-2-yl)-2,5-diphenyltetrazolium bromide (MTT, Sigma Aldrich, United States) solution was added to each well to reach a final concentration of 0.5 mg/mL. After 4 h of incubation (4 h for RPMI 8226 cells), formazan salt was solubilized in ethanol and absorbance was measured at 570 nm in a microplate reader (BMG-Labtech, Ortenberg, Germany).

[2] = target: T1, proteasome (Homo sapiens, UniProt P28074); assay: Proteasome activity assay on lysates of treated RPMI 8226 cells (Suc-LLVY-AMC substrate); type: cell-based; settings: for proteasome inhibition activity: after 24 h, 10, 100 and 500 µM; for IC50: RPMI 8226 cells treated 24 h, read-out: IC50 (proteasome inhibition)
T1 construct: endogenous in cells; host or cells: RPMI 8226 (human multiple myeloma)
T1 sequence (P28074 60-263): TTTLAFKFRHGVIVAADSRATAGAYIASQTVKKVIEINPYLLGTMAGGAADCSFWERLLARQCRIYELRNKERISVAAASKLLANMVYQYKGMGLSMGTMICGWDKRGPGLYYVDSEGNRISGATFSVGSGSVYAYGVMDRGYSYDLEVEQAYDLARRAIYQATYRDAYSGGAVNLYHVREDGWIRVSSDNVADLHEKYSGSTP
Protocol: RPMI 8226 cells treated with Bortezomib (BTZ) 1, 5 and 10 nM were used as positive control for all experiments (Figure S2, Supplementary Information).
Cells not used in the Trypan blue assay were lysed to assess proteasome activity. Briefly, cells were resuspended in a lysis buffer (50 mM Hepes Ph 7.5, 150 mM NaCl, 10% glycerol, 1% Triton X-100, 1.5 mM MgCl2, 5 mM EGTA) and were mechanically lysed with a vortex. Obtained protein lysates were centrifuged at 13,500 RPM for 15 min and were quantified using the Bradford method. Some 40 µg of proteins were then loaded in black-96-well plate to perform the proteasome activity assay. In each well, 7.6 mg/mL proteasome substrate (N-Succinyl-Leu-Leu-Val-Tyr-7-Amido-4-Methylcoumarin, Sigma Aldrich, United States) and proteasome buffer (250 mM Hepes pH 7.5, 5 mM EDTA pH 8.0, 0.5% NP-40, 0.01% SDS) were added to the proteins. Fluorescence was measured after 2 h of incubation in a microplate reader (excitation 380 nm, emission 460 nm; BMG-Labtech, Ortenberg, Germany).
RPMI 8226 cells were treated with different concentrations (10, 100 and 500 µM) of each compound and, after 24 hours, proteasome activity assay was performed.
Supplementary Figure S1. Proteasome activity of RPMI 8226 cells treated with (2R,3R/2S,3S)-13, 14, 16 and 20. Proteasome activity was evaluated in cells treated for 24 hours with different concentrations (10, 100 and 500 µM) of compounds. The graphs represent the mean proteasome activity ± SD, compared to untreated controls, arbitrarily set to 100%. ** p < 0.01 vs CTRL.
RPMI 8226 cells treated with BTZ 1, 5 and 10 nM were used as positive control for all experiments. […]
The graphs represent the mean cell number ± SD of viable and dead cells. ** p < 0.01 vs CTRL; C) Proteasome activity of RPMI 8226 cells treated with BTZ. Proteasome activity was evaluated in cells treated for 24 hours with different concentrations (1, 5 and 10 nM) of BTZ. The graphs represent the mean proteasome activity ± SD, compared to untreated controls, arbitrarily set to 100%. ** p < […]

[3] = tested on: RPMI 8226 cells; assay: MTT assay of cell viability in RPMI 8226 cells; type: cell-based, Human; settings: for change of MTT efficacy over time: 24, 48 and 72 h; for IC50: Homo sapiens
[4] = tested on: RPMI 8226 cells; assay: Trypan blue vital count assay (viable and dead cells); type: cell-based, Human; settings: 100 µM
Protocol: RPMI 8226 cells treated with Bortezomib (BTZ) 1, 5 and 10 nM were used as positive control for all experiments (Figure S2, Supplementary Information). Cells were seeded in 6-well plates at a density of 2.5 × 10^5 cells/well and were treated after 24 h with different concentrations of RA molecules. After 24 h of treatment, cells were collected and stained with Trypan blue vital dye (Sigma Aldrich, Burlington, VT, USA). Viable and dead cells were then counted in a hemocytometer under a light microscope.

[5] = design: method as in PMID 31323932; settings: cited from earlier work
[6] = design: method as in PMID 31323932; settings: cited from earlier work; remark: listed apart in the source
[7] = tested on: human multiple myeloma RPMI 8226 cells; design: method as in PMID 31323932; settings: at 24 h; cited from earlier work
[8] = tested on: proteasome; design: method as in PMID 31323932; settings: cited from earlier work
[9] = 24 h, MTT assay, concentrations 10, 100 and 500 µM, n.e.* = compounds not effective at 500 µM
[10] = Homo sapiens, RPMI-8226, 24 h, MTT assay, concentrations 10, 100 and 500 µM, n.e.* = compounds not effective at 500 µM, read-out: IC50 μM RPMI8226
[11] = Homo sapiens, RPMI-8226, 24 h of treatment, read-out: IC50 (MTT)
[12] = 24 h, MTT assay, concentrations 10, 100 and 500 µM, n.e.* = compounds not effective at 500 µM, read-out: IC50 μM RPMI8226
[13] = 24 h of treatment, read-out: IC50 (MTT)

- IC50 μM RPMI8226 [1, 9]: n.e.*
Compound: 1-Benzyl-2-(3,5-dimethoxyphenyl)-5-oxopyrrolidine-3-carboxylic Acid [(2R,3R/2S,3S)-15]

- IC50 μM RPMI8226 [1, 9]: n.e.*
Compound: 2-(3,5-Dimethoxyphenyl)-1-isobutyl-5-oxopyrrolidine-3-carboxylic Acid [(2R,3R/2S,3S)-11]

- proteasome inhibition activity [2]: most effective
Compound: O=C(O)C1CC(=O)N(Cc2ccccc2)C1c1ccccc1 (racemic) [(2R,3R/2S,3S)-13, 1-Benzyl-5-oxo-2-phenylpyrrolidine 3-Carboxylic Acid]
- change of MTT efficacy over time [3]: time-dependent effect
- IC50 ([3]; RPMI-8226, 48 h): 85 µM
- IC50 ([3]; RPMI-8226, 72 h): 15 µM
- fold more active than Hib-ester in reducing RPMI 8226 cells growth ([3]; after 24 and 72 h of treatment): twelve-fold more active
- cell death (Trypan blue vital count) [4]: significant increase in cell death
- IC50 [1, 10]: 169 ± 21 µM
- IC50 [1, 11]: < 350 µM
- fold more active than the reference compound Hib-ester [1]: at least 6 fold

- IC50 μM RPMI8226 [1, 9]: n.e.*
Compound: CCCCN1CC(C(=O)O)CC1=O (racemic) [(S/R)-4]

- IC50 μM RPMI8226 [1, 9]: n.e.*
Compound: CCCCN1CC(C(=O)OC)CC1=O (racemic) [(S/R)-5, Methyl 1-Butyl-5-oxopyrrolidine-3-carboxylate]

Compound: COC(=O)C1CNC(=O)C1 (racemic) [(S/R)-6]
- IC50 μM RPMI8226 [1, 9]: n.e.*

- IC50 μM RPMI8226 [1, 9]: n.e.*
Compound: COC(=O)C1CC(=O)N(C)C1 (racemic) [(S/R)-7, Methyl 1-Methyl-5-oxopyrrolidine-3-carboxylate]

- IC50 [2]: 189 ± 17 µM
Compound: O=C(O)C1CC(=O)N(Cc2ccccc2)C1c1ccccc1 (single isomer, unassigned; (+)) [(+)-(2S,3S)-13]
- profile in MTT and Trypan blue tests compared with racemate [1]: less antiproliferative properties

- IC50 [2]: 90 ± 8 µM
- activity relative to the opposite enantiomer in the biological assays ([2]; enantiomers of 13): twofold more active
Compound: O=C(O)C1CC(=O)N(Cc2ccccc2)C1c1ccccc1 (single isomer, unassigned; (-)) [(−)-(2R,3R)-13]
- profile in MTT and Trypan blue tests compared with racemate [1]: profile comparable with racemate

- IC50 μM RPMI8226 [1, 9]: n.e.*
Compound: O=C1CC(C(=O)O)C(c2ccccc2)O1 [(2R,3R/2S,3S)-1]

- IC50 μM RPMI8226 [1, 9]: n.e.*
Compound: COC(=O)[C@@H]1CC(=O)O[C@@H]1c1ccccc1 [(2R,3R/2S,3S)-2, Methyl (2S,3R)-5-Oxo-2phenyltetrahydrofuran-3-Carboxylate]

- IC50 μM RPMI8226 [1, 9]: n.e.*
Compound: COC(=O)C1CC(=O)NC1C(=O)OC [(2R,3R/2S,3S)-8, Dimethyl 5-Oxopyrolidine-2,3-dicarboxylate]

- melting point: 120.6 to 122.7 °C
- IC50 μM RPMI8226 [1, 9]: n.e.*
Compound: CC(C)CN1C(=O)CC(C(=O)O)C1c1ccccc1 [(2R,3R/2S,3S)-9, 1-Isobutyl-5-oxo-2-phenylpyrrolidine 3-Carboxylic Acid]

Compound: COC(=O)C1CC(=O)N(CC(C)C)C1c1ccccc1 [(2R,3R/2S,3S)-10, Methyl 1-Isobutyl-5-oxo-2-phenylpyrrolidine-3-carboxylate]
- IC50 [1, 10]: 265 ± 49 µM
- IC50 [1, 11]: < 350 µM
- fold more active than the reference compound Hib-ester [1]: at least 6 fold

- proteasome inhibition at the lowest evaluated concentration ([2]; 10 µM, 24 h): significant inhibition
- proteasome inhibition activity [2]: most effective
Compound: COC(=O)C1CC(=O)N(Cc2ccccc2)C1c1ccccc1 [(2R,3R/2S,3S)-14, Methyl 1-Benzyl-5-oxo-2-phenylpyrrolidine-3-carboxylate]
- change of MTT efficacy over time [3]: time-dependent effect
- IC50 ([3]; RPMI-8226, 48 h): 43 µM
- IC50 ([3]; RPMI-8226, 72 h): 34 µM
- cell death (Trypan blue vital count) [4]: significant increase in cell death
- IC50 [1, 10]: 61 ± 12 µM
- IC50 [1, 11]: < 350 µM
- fold more active than the reference compound Hib-ester [1]: 34 fold
- fold more active than the reference compound Hib-ester ([1]; listed as 14): at least 6 fold

- IC50 μM RPMI8226 [1, 9]: n.e.*
Compound: CC(C)CN1C(=O)CCC(C(=O)O)C1c1ccccc1 [(2R,3R/2S,3S)-17, 1-Isobutyl-6-oxo-2-phenylpiperidine 3-Carboxylic Acid]

Compound: COC(=O)C1CCC(=O)N(CC(C)C)C1c1ccccc1 [(2R,3R/2S,3S)-18, Methyl 1-Isobutyl-6-oxo-2-phenylpiperidine-3-carboxylate]
- IC50 [1, 10]: 301 ± 29 µM
- IC50 [1, 11]: < 350 µM
- fold more active than the reference compound Hib-ester [1]: at least 6 fold

- IC50 μM RPMI8226 [1, 9]: n.e.*
Compound: O=C(O)C1CCC(=O)N(Cc2ccccc2)C1c1ccccc1 [(2R,3R/2S,3S)-19, 1-Benzyl-6-oxo-2-phenylpiperidine 3-Carboxylic Acid]

Compound: COC(=O)C1CCC(=O)N(Cc2ccccc2)C1c1ccccc1 [(2R,3R/2S,3S)-20, Methyl 1-Benzyl-6-oxo-2-phenylpiperidine-3-carboxylate]
- change of MTT efficacy over time [3]: did not show a significant increase in efficacy over time
- IC50 [1, 10]: 152 ± 29 µM
- IC50 [1, 11]: < 350 µM
- fold more active than the reference compound Hib-ester [1]: at least 6 fold

- IC50 μM RPMI8226 [1, 9]: n.e.*
Compound: COC(=O)[C@@H]1CCC(=O)N1 [(S)-3, (S)-Methyl-5-oxopyrrolidine-2-carboxylate]

Compound: COC(=O)C1OC(=O)CC1(O)C(=O)OC (centres unmarked) [Hib-ester]
- neurotoxic effects [5]: without neurotoxic effects
- effect on migration and cell invasion [6]: reduce migration and cell invasion
- IC50 (antiproliferative properties) [7]: 450 µg/mL (≈ 2060 µM)
- proteasome inhibition [8]: inhibit proteasome

Compound: Methyl 1-Benzyl-2-(3,5-dimethoxyphenyl)-5-oxopyrrolidine-3-carboxylate [(2R,3R/2S,3S)-16]
- change of MTT efficacy over time [3]: did not show a significant increase in efficacy over time
- IC50 [1, 12]: 138 ± 27 µM
- IC50 [1, 13]: < 350 µM
- fold more active than the reference compound Hib-ester [1]: at least 6 fold

Compound: Methyl 2-(3,5-Dimethoxyphenyl)-1-isobutyl-5-oxopyrrolidine-3-carboxylate [(2R,3R/2S,3S)-12]
- IC50 [1, 12]: 263 ± 41 µM
- IC50 [1, 13]: < 350 µM
- fold more active than the reference compound Hib-ester [1]: at least 6 fold
